Residue numbers refer to the chain shown, from its start.

One assay concerns the target T1, AR protein (Homo sapiens, UniProt P10275, T878A).
T1 construct: degradation activity of the compounds disclosed in the present disclosure on AR protein in LNCaP cells; host or cells: LNCaP FGC
T1 sequence (P10275 1-920 T878A): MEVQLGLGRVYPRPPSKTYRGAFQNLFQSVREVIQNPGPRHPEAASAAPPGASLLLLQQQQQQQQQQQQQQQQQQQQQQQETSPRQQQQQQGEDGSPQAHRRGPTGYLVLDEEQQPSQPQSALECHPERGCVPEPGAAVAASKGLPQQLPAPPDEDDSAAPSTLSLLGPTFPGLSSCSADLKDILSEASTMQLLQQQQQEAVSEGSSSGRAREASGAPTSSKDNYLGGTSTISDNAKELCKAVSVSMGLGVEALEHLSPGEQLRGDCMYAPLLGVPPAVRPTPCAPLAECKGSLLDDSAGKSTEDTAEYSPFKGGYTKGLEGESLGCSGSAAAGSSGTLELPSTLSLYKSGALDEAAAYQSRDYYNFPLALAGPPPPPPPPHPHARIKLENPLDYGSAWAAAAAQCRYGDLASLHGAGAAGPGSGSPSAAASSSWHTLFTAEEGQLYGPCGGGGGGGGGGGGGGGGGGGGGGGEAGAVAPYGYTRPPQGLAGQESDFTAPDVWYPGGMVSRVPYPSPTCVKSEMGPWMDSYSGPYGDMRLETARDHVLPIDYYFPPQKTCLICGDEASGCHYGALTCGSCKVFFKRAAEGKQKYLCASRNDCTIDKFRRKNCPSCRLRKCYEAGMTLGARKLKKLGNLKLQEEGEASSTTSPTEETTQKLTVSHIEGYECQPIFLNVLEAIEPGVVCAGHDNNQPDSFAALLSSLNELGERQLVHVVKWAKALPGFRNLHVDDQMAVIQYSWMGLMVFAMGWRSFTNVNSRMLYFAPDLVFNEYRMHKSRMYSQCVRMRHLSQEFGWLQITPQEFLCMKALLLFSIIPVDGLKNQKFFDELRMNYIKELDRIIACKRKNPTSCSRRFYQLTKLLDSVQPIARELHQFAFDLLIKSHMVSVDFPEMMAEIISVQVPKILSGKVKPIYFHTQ
As to the kind of experiment: Degradation of AR protein in LNCaP cells (Western blot). The class given is cell-based. The conditions noted are these: LNCaP cells, compound 10 nM, 8 hours, Western blot grayscale, GAPDH internal reference; read-out: Degradation rates of the AR protein in LNCaP cells, 10 nM (%). As for the experimental part:
The degradation activity of the compounds disclosed in the present disclosure on AR protein in LNCaP cells (cell source: ATCC)
(§1) Corresponding solvent controls were also set and cultured for 8 hours. After 8 hours of cultivation, the culture medium was removed and the cells were washed with PBS. RIPA lysis buffer containing 1% Protease Inhibitor Cocktail was added, and the total protein extract was obtained by lysis and centrifugation. The protein concentration in the extract was detected by BCA method. Protein electrophoresis was performed using SDS-PAGE, followed by transfer of the protein onto a PVDF (Millipore Sigma catalog No. PSRP010R5) membrane at 100V constant voltage for 60 minutes. The PVDF membrane was then placed in a 1×TBST solution with 5% milk and blocked at room temperature for 1 hour. […] The primary antibody solution was discarded and the PVDF membrane was washed three times with 1×TBST for 5 minutes/time. […] The secondary antibody solution was discarded and the PVDF membrane was washed three times with 1×TBST for 5 minutes/time. Western blot imaging was performed by using a dual color infrared laser imaging system (Licor catalog No. Odyssey CLX). Bands were analyzed in grayscale using Image Studio software. For each sample, GAPDH protein bands were detected as internal reference. The degradation rates of the AR protein for the compounds and the positive control sample were calculated based on grayscale of the protein bands.
On the technique in general: A western blot detects proteins with antibodies after separation by electrophoresis.
For `N#Cc1ccc(O[C@H]2CC[C@H](NC(=O)c3ccc(N4CCC5(CCC(N6CCC7(CC6)COc6c(ccc8c6C(=O)N(C6CCC(=O)NC6=O)C8)C7)CC5)CC4)nn3)CC2)cc1Cl` (stereo partly drawn) [Compound 190], the inhibition at 0.01 µM was determined as 53%.
As to `N#Cc1ccc(O[C@H]2CC[C@H](NC(=O)c3ccc(N4CCC5(CC4)COc4c5ccc5c4CN(C4CCC(=O)NC4=O)C5=O)nn3)CC2)cc1Cl` (stereo partly drawn) [Compound 200], the inhibition at 0.01 µM was determined as 44%.
For the molecule `COc1cc(O[C@H]2C(C)(C)[C@H](NC(=O)c3ccc(N4CCC(CN5CCC6(CC5)COc5c6ccc6c5CN(C5CCC(=O)NC5=O)C6=O)(OC)CC4)cc3)C2(C)C)ccc1C#N` (stereo partly drawn) [Compound 217], the inhibition at 0.01 µM is -2%.
As for `CC1(CN2CCC3(CC2)COc2c3ccc3c2CN(C2CCC(=O)NC2=O)C3=O)CCN(c2ccc(C(=O)N[C@H]3C(C)(C)[C@H](Oc4ccc(C#N)c(Cl)c4)C3(C)C)cc2)CC1` (stereo partly drawn) [Compound 222], the inhibition at 0.01 µM was found to be 4%.

Still in this assay, the particulars now being: LNCaP cells, compound 100 nM, 8 hours, Western blot grayscale, GAPDH internal reference; read-out: Degradation rates of the AR protein in LNCaP cells, 100 nM (%).
As to `N#Cc1ccc(O[C@H]2CC[C@H](NC(=O)c3ccc(N4CCC5(CCC(N6CCC7(CC6)COc6c(ccc8c6C(=O)N(C6CCC(=O)NC6=O)C8)C7)CC5)CC4)nn3)CC2)cc1Cl` (stereo partly drawn) [Compound 190], the inhibition at 0.1 µM was 75%.
With `N#Cc1ccc(O[C@H]2CC[C@H](NC(=O)c3ccc(N4CCC5(CC4)COc4c5ccc5c4CN(C4CCC(=O)NC4=O)C5=O)nn3)CC2)cc1Cl` (stereo partly drawn) [Compound 200], the inhibition at 0.1 µM amounted to 27%.
Regarding `COc1cc(O[C@H]2C(C)(C)[C@H](NC(=O)c3ccc(N4CCC(CN5CCC6(CC5)COc5c6ccc6c5CN(C5CCC(=O)NC5=O)C6=O)(OC)CC4)cc3)C2(C)C)ccc1C#N` (stereo partly drawn) [Compound 217], the inhibition at 0.1 µM is 48%.
For the molecule `CC1(CN2CCC3(CC2)COc2c3ccc3c2CN(C2CCC(=O)NC2=O)C3=O)CCN(c2ccc(C(=O)N[C@H]3C(C)(C)[C@H](Oc4ccc(C#N)c(Cl)c4)C3(C)C)cc2)CC1` (stereo partly drawn) [Compound 222], the inhibition at 0.1 µM turned out to be 75%.

In another assay the target is T2, AR protein (Homo sapiens, UniProt P10275).
T2 construct: degradation activity of the compounds disclosed in the present disclosure on AR protein in VCaP cells; host or cells: VCaP
T2 sequence (P10275 1-920): T1 sequence (P10275 1-920 T878A) with A878T
As to the kind of experiment: Degradation of AR protein in VCaP cells (Western blot). The class given is cell-based. The conditions noted are these: compound at 10 nM, 8 hours, read-out: Degradation rate of the AR protein in VCaP cells, 10 nM (%). On the procedure: The degradation activity of the compounds disclosed in the present disclosure on AR protein in VCaP cells (cell source: ATCC)
as §1
For `N#Cc1ccc(O[C@H]2CC[C@H](NC(=O)c3ccc(N4CCC5(CC4)COc4c5ccc5c4CN(C4CCC(=O)NC4=O)C5=O)nn3)CC2)cc1Cl` (stereo partly drawn) [Compound 200], the inhibition at 0.01 µM came to 25%.
On the same count and under the same terms, the figure for `COc1cc(O[C@H]2C(C)(C)[C@H](NC(=O)c3ccc(N4CCC(CN5CCC6(CC5)COc5c6ccc6c5CN(C5CCC(=O)NC5=O)C6=O)(OC)CC4)cc3)C2(C)C)ccc1C#N` (stereo partly drawn) [Compound 217] is 49%.
Regarding `CC1(CN2CCC3(CC2)COc2c3ccc3c2CN(C2CCC(=O)NC2=O)C3=O)CCN(c2ccc(C(=O)N[C@H]3C(C)(C)[C@H](Oc4ccc(C#N)c(Cl)c4)C3(C)C)cc2)CC1` (stereo partly drawn) [Compound 222], the inhibition at 0.01 µM turned out to be 8%.

Staying with this assay, now noted: compound at 100 nM, 8 hours, read-out: Degradation rate of the AR protein in VCaP cells, 100 nM (%).
As to `N#Cc1ccc(O[C@H]2CC[C@H](NC(=O)c3ccc(N4CCC5(CC4)COc4c5ccc5c4CN(C4CCC(=O)NC4=O)C5=O)nn3)CC2)cc1Cl` (stereo partly drawn) [Compound 200], the inhibition at 0.1 µM worked out at 57%.
The same measure, in the same setting: in the case of `COc1cc(O[C@H]2C(C)(C)[C@H](NC(=O)c3ccc(N4CCC(CN5CCC6(CC5)COc5c6ccc6c5CN(C5CCC(=O)NC5=O)C6=O)(OC)CC4)cc3)C2(C)C)ccc1C#N` (stereo partly drawn) [Compound 217] it was 83%; in that of `CC1(CN2CCC3(CC2)COc2c3ccc3c2CN(C2CCC(=O)NC2=O)C3=O)CCN(c2ccc(C(=O)N[C@H]3C(C)(C)[C@H](Oc4ccc(C#N)c(Cl)c4)C3(C)C)cc2)CC1` (stereo partly drawn) [Compound 222], 61%.

A further assay has as its system LNCaP FGC cells. As to the kind of experiment: Inhibition of proliferation of LNCaP cells (WST-8). Conditions: Homo sapiens, LNCaP, 96 h, LNCaP FGC cells, 96 hours, WST-8 absorbance at 450 nm; read-out: IC50 for inhibiting the proliferation of LNCaP cells. The class given is cell-based. On the procedure: The cells were cultured in a cell culture incubator with 5% CO2 at 37° C. overnight. […] On the sixth day, 96 well plates were taken out, and 20 μL of WST-8 (Beytime, C0040) reagent was added to each well.
On the technique in general: Tetrazolium dyes change colour on reduction, which living cells bring about.
For `N#Cc1ccc(O[C@H]2CC[C@H](NC(=O)c3ccc(N4CCC5(CCC(N6CCC7(CC6)COc6c(ccc8c6C(=O)N(C6CCC(=O)NC6=O)C8)C7)CC5)CC4)nn3)CC2)cc1Cl` (stereo partly drawn) [Compound 190], the IC50 was 5.15 µM.
`N#Cc1ccc(O[C@H]2CC[C@H](NC(=O)c3ccc(N4CCC5(CC4)COc4c5ccc5c4CN(C4CCC(=O)NC4=O)C5=O)nn3)CC2)cc1Cl` (stereo partly drawn) [Compound 200]: the IC50 stood at 91 µM.
For the molecule `COc1cc(O[C@H]2C(C)(C)[C@H](NC(=O)c3ccc(N4CCC(CN5CCC6(CC5)COc5c6ccc6c5CN(C5CCC(=O)NC5=O)C6=O)(OC)CC4)cc3)C2(C)C)ccc1C#N` (stereo partly drawn) [Compound 217], the IC50 is 0.005 µM.
On the same count and under the same terms, the figure for `CC1(CN2CCC3(CC2)COc2c3ccc3c2CN(C2CCC(=O)NC2=O)C3=O)CCN(c2ccc(C(=O)N[C@H]3C(C)(C)[C@H](Oc4ccc(C#N)c(Cl)c4)C3(C)C)cc2)CC1` (stereo partly drawn) [Compound 222] is 0.88 µM.
